By GI50 is commonly meant the concentration giving 50% growth inhibition. Low values mean greater sensitivity of the cells, high ones lower sensitivity of the cells. One may read the LC50 as the concentration that kills 50% of the test population. One may read the IC50 as the concentration that inhibits the measured activity by half.

The values that follow come from US8957228B2, “Macrolide compound having anticancer effect” (Tohoku University, priority 2010, dated 2015).

Structures are written as SMILES. Bounds are passed on as bounds.

Data set [1] deals with A549 (human lung adenocarcinoma). Description: Drug sensitivity test, panel of human cultured cancer cell lines (sulforhodamine B colorimetry). In kind it is cell-based. As to the method: (§1) The anticancer activity of exiguolide was examined by an in vitro drug sensitivity test using a panel of 39 human cultured cancer cell lines, by Professor Yamori, Molecular Pharmacology, Cancer Chemotherapy Center of Japanese Foundation for Cancer Research upon request.
(§2) The test was performed by seeding seven lung cancer cell lines, six gastric cancer cell lines, five colon cancer cell lines, five ovarian cancer cell lines, six brain cancer cell lines, five breast cancer cell lines, two kidney cancer cell lines, two prostatic cancer cell lines, and one melanoma cell line, 39 cell lines in total, in a 96-well plate, adding a sample solution containing a predetermined concentration of exiguolide to each well on the following day, culturing the cell lines for two days, and measuring the cell growth by colorimetry with sulforhodamine B. The measurement results were input into a computer, and the sensitivity patterns (growth rate and finger print, described below) of each cell line on exiguolide were analyzed using three parameters, GI50, TGI, and LC50, as indices. The data were also subjected to analysis comparing with sensitivities on known compounds showing cell growth-inhibiting activities.
(§3) The growth rate percentages were plotted with respect to drug concentrations (logarithm) for each cell line, and the growth rates (%) were summarized on each organ cancer (FIG. 3: dose-response curves). In each curve, the concentrations at the points at which the growth rates 50%, 0%, and -50% intersect horizontal lines correspond to log GI50, log TGI, and log LC50, respectively.
(§4) The average of log GI50 values of all cell lines tested was determined. The difference between this average and log GI50 value of each cell line (e.g., how much the GI50 of each cell line is high or low relative to the average is shown as logarithmic value) was determined, and the results were drawn as a bar graph extending left or right from the center showing the average log GI50 value (scale: 0) to form finger prints (FIG. 4). A cell line having higher sensitivity is drawn as a longer bar extending to the right side.

Data set [2] has as its system MKN74 (human gastric carcinoma). Described as above. In kind it is cell-based. As for the experimental part:
as §1, §2, §3, §4

The subject of data set [3] is NCI-H460 (human lung large cell carcinoma). The description is as above. It is filed as cell-based. As for the experimental part:
as §1, §2, §3, §4

Data set [4] relates to SK-OV-3 (human ovarian carcinoma). The data set is described as above. In kind it is cell-based. As to the method: as §1, §2, §3, §4
Data set [5] has as its system A549 cell line derived from lung cancer. Description: Antiproliferative activity test (Alamar Blue, 72 hours). In kind it is cell-based, human. The conditions noted are these: read-out: IC50 (50% growth inhibition). From the text:
(§5) Antiproliferative activities of exiguolide and its analogs shown in Examples were examined using A549 and H460 cell lines derived from lung cancer and an A172 cell line derived from human glioblastoma cells. Each cell line was maintained in an RPMI 1640 medium supplemented with 10% fetal bovine serum (in the cases of the H460 cell line and the A172 cell line) or in a DMEM medium supplemented with 10% fetal bovine serum (in the case of the A549 cell line). Cells in the proliferative phase were seeded in a 96-well plate in triplicate and were cultured for 72 hours in the presence of the compound at various concentrations. At the completion of the culture period, an Alamar Blue solution (Invitrogen Corporation) was added to each culture in an amount of 1/10 of that of the medium, followed by leaving to stand for 3 hours. The fluorescence intensity was measured with Fluoroskan Ascent (Thermo Fisher Scientific K.K.). […] The fluorescence intensities of experimental groups were determined as relative intensities to that of the control group and were plotted. The concentration of a compound for achieving the 50% growth inhibition (IC50) of each cancer cell line was calculated by a non-linear regression model of standard slope using the GraphPad Prism software.

Data set [6] relates to H460 cell line derived from lung cancer. The data set is described as above. In kind it is cell-based, human. The settings on record: read-out: IC50 (50% growth inhibition).
Excerpt: as §5

Data set [7] has as its system A172 cell line derived from human glioblastoma cells. Described as above. It is filed as cell-based. The conditions noted are these: read-out: IC50 (50% growth inhibition).
Excerpt: as §5

The next data set has as its system H460 cell line. The settings on record: H460 exposed to 1 μM. As to the method:
The cell-cycle arrest activity of exiguolide was investigated. The H460 cell line was exposed to 1 μM of exiguolide, and the ratio of cells at each cell cycle phase was measured with a flow cytometer. The DNA staining reagent used was propidium iodide. The A549 cell line was exposed to exiguolide (0.01 to 5 μM) for 72 hours, and then the activity of a cell cycle regulator, Rb, was measured by Wester blotting.

Data set [8] concerns Rb phosphorylation in A549 cell line. Kind of data set: Activity of cell cycle regulator Rb by Western blotting. It is filed as cell-based, human. The conditions noted are these: A549 exposed to 0.01 to 5 μM for 72 hours. In general terms: A western blot detects proteins with antibodies after separation by electrophoresis.
For data set [9], the system named is tumors induced by human lung cancer cell line A549. Description: In vivo antitumor activity test, subcutaneous tumor in immunodeficient mice. On the set-up: species or system mice (BALB/cAJcl-nu/nu). The conditions noted are these: printed 'in the H460 cell line', 0.2 mg/kg intraperitoneally once a day. As to the method: (§6) Immunodeficient mice (BALB/cAJcl-nu/nu) were subcutaneously inoculated with human lung cancer cells (H460, A549, etc.). When the subcutaneous tumor volume reached approximately 200 mm^3, the mice were divided into an exiguolide administration group (n=2) and a control group (n=4) at random. The administration group was intraperitoneally administered with 0.2 mg/kg of exiguolide, and the control group with PBS (200 μL) and DMSO (5 to 10 μL), every day (once a day). […] The subcutaneous tumors were recognized from the body surface, and the change in tumor diameter was measured with a vernier caliper. […] After completion of the observation, the mice were euthanized with halothane. The tumors were extracted and were subjected to observation of the size, weight, and pathological findings.
(§7) The results are shown in FIG. 8 (H460) and FIG. 9 (A549). In each graph, the vertical axis (relative volume) represents the relative values of the estimated tumor volume of each group to that on the day 0, where the estimated tumor volume is expressed using a major axis “a” and a minor axis “b” by (a×b^2)/2.

Data set [10] has as its system tumors induced by human lung cancer cell line H460. The description is as above. Further details: species or system mice (BALB/cAJcl-nu/nu). The settings on record: 0.2 mg/kg intraperitoneally once a day, 15 days. As for the experimental part:
as §6, §7

Data set [11] has as its system Hemicentrotus pulcherrimus. The settings on record: Non Patent Literature 1; cited from earlier work.
Data set [12] deals with A549, H460 and A172 cell lines. Description: Antiproliferative activity test (Alamar Blue, 72 hours), statements across cell lines. It is filed as cell-based, human. The conditions noted are these: result in words; for induction of cell death: no data are shown.
Excerpt: as §5
For orientation: The colour change of resazurin is a common sign of viable cells or microbes.

Another data set relates to NCI-H460 cell line. The settings on record: National Cancer Institute database; cited from earlier work.
A further data set deals with A549 cell line. The conditions noted are these: National Cancer Institute database; cited from earlier work.
Another data set deals with SK-OV-3 cell line. The conditions noted are these: National Cancer Institute database; cited from earlier work.
[13] abbreviates: concentration inducing 50% cell death, read-out: LC50 (the source's name).
[14] abbreviates: concentration inducing 50% growth inhibition, two days culture.

On to `COC(=O)/C=C1\C[C@H]2CC(=O)O[C@@H](/C=C/C=C\C=C(/C)CC(=O)OC)[C@@H](C)/C=C/[C@H](C)C[C@H]3CCC[C@@H](C[C@@H](C1)O2)O3` [exiguolide, (−)exiguolide], for which the CC50 in [1] (setting [13]), in data set [2] (setting [13]) and in data set [4] (setting [13]) was more than 100000 nM each time. Further, the concentration for 50% growth inhibition (GI50) was 650 nM in [1] (setting [14]), 690 nM in [2] (setting [14]), 10 nM in data set [3] (setting [14]) and 700 nM in data set [4] (setting [14]). Further, the “Log GI50” value in data set [1] (setting [14]) was −6.19; in [2] (setting [14]), −6.16; in data set [3] (setting [14]) it was −8.00; in [4] (setting [14]) it was −6.15. Also, the LC50 in [3] (concentration inducing 50% cell death) is more than 100000 nM. The half-maximal inhibitory concentration (IC50) in data set [5] stood at 590 nM; in data set [6], 280 nM; in data set [7], 460 nM. The “ratio of cells at G1 phase in cell cycle” value in the data set on H460 cell line is reported as “consistently increased the ratio of the G1 phase in cell cycle”. The “phosphorylation of G1-regulating protein Rb” value in [8] is reported as “decreased with an increase in concentration of exiguolide”. Besides, the “relative tumor weight ratio (administration group/control group) at the end of the experiment” value in data set [9] (second of two ratios) is 0.33; in data set [10] it was 0.17. Moreover, the “relative tumor weight of administration group at the end of the experiment” value in data set [9] (second of two values) turned out to be 1.17; in data set [10], 3.35. The “activity of inhibiting maturation of ova and spermatozoa” value in data set [11] was “activity of inhibiting maturation of ova and spermatozoa”.

As to `CCCCC=C/C=C/C1OC(=O)CC2C[C@H](O)C[C@H](CC3CCC[C@H](C[C@@H](C)/C=C/[C@@H]1C)O3)O2` (stereo partly shown) [analog 4], in data set [12], the cell growth-inhibiting effect result is “remarkable cell growth-inhibiting effects” and the “induction of cell death” value is “active induction of cell death was observed”.

Take `COC(=O)C/C(C)=C/C=C\C=C\C1OC(=O)CC2C[C@H](O)C[C@H](CC3CCC[C@H](C[C@@H](C)/C=C/[C@@H]1C)O3)O2` (stereo partly shown) [analog 1]: in data set [12], the cell growth-inhibiting effect entry is “remarkable cell growth-inhibiting effects” and the “induction of cell death” value is “active induction of cell death was observed”.

In the case of `CCC/C=C/C=C/C(=O)O[C@H]1/C(=C/C(=O)OC)C[C@H]2C[C@H]([C@@H](C)O)OC(=O)C[C@H](O)C[C@@H]3C[C@H](OC(C)=O)C(C)(C)[C@](O)(C[C@@H]4C/C(=C/C(=O)OC)C[C@H](/C=C/C(C)(C)[C@]1(O)O2)O4)O3` [bryostatin 1], the “antiproliferative activity (log value compared with Log GI50)” value is reported as −5.6 in the data set with NCI-H460 cell line, −5.4 in the data set on A549 cell line and −5.3 in the data set on SK-OV-3 cell line.

Take `COC(=O)C/C(C)=C/C=C\C=C\C1OC(=O)CC2CC(=O)C[C@H](CC3CCC[C@H](C[C@@H](C)/C=C/[C@@H]1C)O3)O2` (stereo partly shown) [analog 7]: in [12], the cell growth-inhibiting effect result is recorded as “remarkable cell growth-inhibiting effects” and the “induction of cell death” value is recorded as “active induction of cell death was observed”.
